According to patent US11078499B2, “Host cells and methods for producing toluene biochemically” (The Regents of the University of California, priority 2018, dated 2021):

System: PhdB
Assay: Assays testing whether PhdB could decarboxylate o-, m-, or p-hydroxyphenylacetate, equimolar with phenylacetic acid-2-13C
Type: biochemical, Acidobacteria strain Tolsyn
Settings: for PhdB activity on substrate: relative to phenylacetate, equimolar 2.5 mM
Method: Analogous assays with o- and m-hydroxyphenylacetate similarly indicated very low (in this case, undetectable) PhdB activity for these hydroxyphenylacetate isomers, whereas labeled toluene is easily detected.
Assays for phenylacetate decarboxylase activity were performed under strictly anaerobic conditions within a glove box. Assays, which were performed in 4-mL glass vials sealed with 13-mm diameter PTFE Mininert screw-cap valves (Sigma-Aldrich), contained […] PhdA in assay buffer [50 mM TRIS (pH 7.5), 150 mM NaCl, 1 mM MgCl2, 5 mM (NH4)2SO4, 5 mM DTT)], to which 2 mM dithionite was added and incubated for ˜1 hour, followed by the addition of 2 mM SAM, 2.5 μM PhdB in assay buffer, and 2.5 mM phenylacetic acid-2-^13C in a final volume of 1 or 1.5 mL (depending on the specific experiment). Quantitative standards contained the same headspace/liquid ratios as assays and a dimensionless Henry's constant of 0.27^43 was used to calculate aqueous concentration. Negative controls were run concurrently and were identical except for the absence of SAM (FIG. 6). The vials were shaken on a tabletop orbital shaker at low speed. Gaseous headspace samples (100 μL) were taken within the glove box using a 500-μL gastight syringe (Sample-Lok series A-2; Sigma-Aldrich) and analyzed immediately by GC/MS, as described previously^8. Briefly, toluene was analyzed by static headspace, electron ionization (EI) GC/MS using a model 7890A GC (Agilent, Santa Clara, Calif.) with a DB-5 fused silica capillary column (30-m length, 0.25-mm inner diameter, 0.25-μm film thickness; Agilent) coupled to an HP 5975C series quadrupole mass spectrometer. As described elsewhere^8, the identity of [methyl-^13C]toluene was confirmed with the expected m/z 93/92 ratio of 0.6. Replicates involved separate assays rather than multiple analyses of a given assay sample. In assays testing whether PhdB could decarboxylate o-, m-, or p-hydroxyphenylacetate to o-, m-, or p-cresol, conditions were as described above except that equimolar amounts (2.5 mM) of o-, m-, or p-hydroxyphenylacetic acid (Sigma) and phenylacetic acid-2-^13C were added, and GC/MS analysis of o-, m-, or p-cresol in 1-μL liquid injections of concentrated hexane extracts were conducted as described previously^8. The identity of o-, m-, or p-cresol was assessed using retention time and the expected m/z 108/107 ratio of 1.16, 1.05, or 0.83, respectively, based on authentic standards.

Row | Compound | p-cresol level relative to that expected if PhdB activity were comparable to phenylacetate (equimolar phenylacetate and p-hydroxyphenylacetate (2.5 mM) with PhdA, PhdB and SAM) | PhdB activity on substrate
1 | O=C(O)Cc1ccc(O)cc1 [p-hydroxyphenylacetate] | approximately 100 fold lower | far lower activity
2 | O=C(O)Cc1cccc(O)c1 [m-hydroxyphenylacetate, m-hydroxyphenylacetic acid] |  | undetectable
3 | O=C(O)Cc1ccccc1O [o-hydroxyphenylacetate, o-hydroxyphenylacetic acid] |  | undetectable
